Reference: patent publication US20170274087A1, “SACCHARIDE ANALOGS AND AGENTS FOR THE DIAGNOSIS AND THERAPY OF BACTERIAL INFECTIONS” (Emory University, priority 2014, published 2017)

Assays:
maltase = test: in vitro
Experimental: The stability of thiomaltose and maltose was investigated in the presence of maltase. Thiomaltose and maltose were incubated with 10 units of maltase, which is an enzyme that breaks maltose into two glucose molecules. The hydrolysis kinetics of thiomaltose and maltose was determined by quantifying the glucose released from thiomaltose or maltose hydrolysis.

Giardia = Giardia growth assay in 96 well plates (coulter counter); format: cell-based; conditions: 48 hours, 37° C., DMSO at or below 0.1%
Experimental: Methods for evaluating EC50 measurements in Giardia were established. Giardia cells were cultured in 96 well microtiter plates in anaerobic BD Bio-Bags (Becton Dickinson). Growth was assayed with a MoxiZ coulter counter (Orflo Technologies). The TMM and metroinadazole stock solutions contained DMSO to improve solubility. Giardia growth in 96 well plates with various volumes of TYDK media 10 and DMSO concentrations were evaluated over several days at 37° C. Cells grew more consistently in higher volumes of media and noted reduced growth in DMSO concentrations above 0.25%. […] Growth was evaluated after 48 hours.

P. aeruginosa = P. aeruginosa growth inhibition (absorption, OD600); format: cell-based; conditions: up to a 10 μM concentration; multidrug-resistant clinical isolate
Experimental: TM-R and free radezolid were incubated with P. aeruginosa for 24 hours. OD600 were used to determine the bacteria growth.
P. aeruginosa (5×10^8 CFUs) were incubated with various concentrations of either radezolid or TMR and the MIC was determined via absorption measurements. The P. aeruginosa strain used in this experiment was a clinical isolate, resistant to multiple antibiotics, obtained from a blood stream infection.

With `OC[C@H]1O[C@H](O[C@H]2[C@H](O)[C@@H](O)[C@H](O)O[C@@H]2CO)[C@H](O)[C@@H](O)[C@@H]1O` [maltose] the half-life (maltase) was roughly 30 min and the “maltase hydrolysis (in words)” value (maltase; 3 hours, 10 units of maltase) was “hydrolyzed completely”.

With `Cc1ncc([N+](=O)[O-])n1CCO` [metronidazole] the EC50 (Giardia) was 1700 nM.

In the case of `CC(=O)NC[C@H]1CN(c2ccc(-c3ccc(CNCc4cnn[nH]4)cc3)c(F)c2)C(=O)O1` [radezolid], the “efficacy against P. aeruginosa growth (in words)” value (P. aeruginosa) is reported as “no efficacy”.

With `OCC1OC(SC2C(CO)OC(O)C(O)C2O)C(O)C(O)C1O` (stereo not drawn) [thiomaltose] the hydrolyzed by maltase (maltase; 3 hours, 10 units of maltase) was “less than 1%” and the “maltase hydrolysis (in words)” value (maltase; 3 hours, 10 units of maltase) was “negligible hydrolysis”.
